Tested on: Subjects with Osteoarthritis of the Knee
Assay: Second Phase 2 study: safety (treatment-emergent adverse events)
Type: in vivo, human
Conditions: for Adverse events of special interest, Events / Adverse events of special interest, Subjects, number (%) / Local skin reactions around the treated knees, Events / Local skin reactions around the treated knees, Subjects, number (%) / Requires hospitalization, Events / Requires hospitalization, Subjects, number (%) / Results in death, number (%) / Serious treatment-emergent adverse events, Events / Serious treatment-emergent adverse events, Subjects, number (%) / Severe treatment-emergent adverse events, Events / Severe treatment-emergent adverse events, Subjects, number (%) / To be discontinued from the study due to adverse events, Events / To be discontinued from the study due to adverse events, Subjects, number (%) / To be discontinued from the treatment temporarily due to adverse events, Events / To be discontinued from the treatment temporarily due to adverse events, Subjects, number (%) / Treatment-emergent adverse events, Events / Treatment-emergent adverse events, Subjects, number (%): All Causalities
Excerpt: Safety assessments will be performed at each visit and will include assessment of AEs, vital signs (blood pressure, pulse rate, and oral temperature), clinical laboratories, physical examination, skin irritation, and electrocardiograms (ECGs) as indicated in the study flow chart, Table 47.
Safety assessments will include AEs, vital signs (blood pressures, pulse rate, and oral temperature), clinical laboratories, physical examination, skin irritation, and ECGs at various time points during the study as indicated in the study flow chart.
Adverse events of interest include: local skin reactions around the treated knee(s), upper stomach pain, GI bleeding, serious cardiovascular side effects (e.g., thrombotic events, myocardial infarction, or stroke), jaundice, elevated liver function tests, and nausea.
Safety analyses will be conducted on the SAS. Safety parameters will be listed and summarized using standard descriptive statistics, as appropriate. No formal statistical analyses are planned.

[1] = moderate adverse events, 4.375 mg/knee, BID, N = 71

CCN(CC)CCOC(=O)C(C)c1ccc(CC(C)C)cc1 (centres unmarked) [2-(diethylamino)ethyl 2-(4-isobutylphenyl)propionate]
Toothache: percentage of subjects with adverse events (17.5 mg/knee, BID, N = 70): 1.4% | Toothache: subjects with adverse events (17.5 mg/knee, BID, N = 70): 1 | Upper Respiratory Tract Infection: number of adverse events (17.5 mg/knee, BID, N = 70): 5 | Upper Respiratory Tract Infection: subjects with adverse events, number (percentage) (17.5 mg/knee, BID, N = 70): 5(7.1%) | Urinary Tract Infection: number of adverse events (17.5 mg/knee, BID, N = 70): 9 | Urinary Tract Infection: subjects with adverse events, number (percentage) (17.5 mg/knee, BID, N = 70): 8(11.4%) | Adverse events of special interest, Events (4.375 mg/knee BID, n = 71): 16 | Adverse events of special interest, Subjects, number (%) (4.375 mg/knee BID, n = 71): 11 (15.5%) | Local skin reactions around the treated knees, Events (4.375 mg/knee BID, n = 71): 1 | Local skin reactions around the treated knees, Subjects, number (%) (4.375 mg/knee BID, n = 71): 1 (1.4%) | Requires hospitalization, Events (4.375 mg/knee BID, n = 71): 0 | Requires hospitalization, Subjects, number (%) (4.375 mg/knee BID, n = 71): 0 | Results in death, number (%) (4.375 mg/knee BID, n = 71): 1 (1.4%) | Serious treatment-emergent adverse events, Events (4.375 mg/knee BID, n = 71): 1 | Serious treatment-emergent adverse events, Subjects, number (%) (4.375 mg/knee BID, n = 71): 1 (1.4) | Severe treatment-emergent adverse events, Events (4.375 mg/knee BID, n = 71): 1 | Severe treatment-emergent adverse events, Subjects, number (%) (4.375 mg/knee BID, n = 71): 1 (1.4%) | To be discontinued from the study due to adverse events, Events (4.375 mg/knee BID, n = 71): 1 | To be discontinued from the study due to adverse events, Subjects, number (%) (4.375 mg/knee BID, n = 71): 1 (1.4%) | To be discontinued from the treatment temporarily due to adverse events, Events (4.375 mg/knee BID, n = 71): 1 | To be discontinued from the treatment temporarily due to adverse events, Subjects, number (%) (4.375 mg/knee BID, n = 71): 1 (1.4%) | Treatment-emergent adverse events, Events (4.375 mg/knee BID, n = 71): 68 | Treatment-emergent adverse events, Subjects, number (%) (4.375 mg/knee BID, n = 71): 41 (57.7%) | Adverse events of special interest, Events (8.75 mg/knee BID, n = 70): 12 | Adverse events of special interest, Subjects, number (%) (8.75 mg/knee BID, n = 70): 10 (14.3) | Local skin reactions around the treated knees, Events (8.75 mg/knee BID, n = 70): 1 | Local skin reactions around the treated knees, Subjects, number (%) (8.75 mg/knee BID, n = 70): 1 (1.4%) | Requires hospitalization, Events (8.75 mg/knee BID, n = 70): 1 | Requires hospitalization, Subjects, number (%) (8.75 mg/knee BID, n = 70): 1 (1.4%) | Results in death, number (%) (8.75 mg/knee BID, n = 70): 0 | Serious treatment-emergent adverse events, Events (8.75 mg/knee BID, n = 70): 1 | Serious treatment-emergent adverse events, Subjects, number (%) (8.75 mg/knee BID, n = 70): 1 (1.4) | Severe treatment-emergent adverse events, Events (8.75 mg/knee BID, n = 70): 1 | Severe treatment-emergent adverse events, Subjects, number (%) (8.75 mg/knee BID, n = 70): 1 (1.4%) | To be discontinued from the study due to adverse events, Events (8.75 mg/knee BID, n = 70): 0 | To be discontinued from the study due to adverse events, Subjects, number (%) (8.75 mg/knee BID, n = 70): 0 | To be discontinued from the treatment temporarily due to adverse events, Events (8.75 mg/knee BID, n = 70): 1 | To be discontinued from the treatment temporarily due to adverse events, Subjects, number (%) (8.75 mg/knee BID, n = 70): 1 (1.4%) | Treatment-emergent adverse events, Events (8.75 mg/knee BID, n = 70): 71 | Treatment-emergent adverse events, Subjects, number (%) (8.75 mg/knee BID, n = 70): 39 (55.7%) | Adverse events of special interest, Events (17.5 mg/knee BID, n = 70): 14 | Adverse events of special interest, Subjects, number (%) (17.5 mg/knee BID, n = 70): 11 (15.7) | Local skin reactions around the treated knees, Events (17.5 mg/knee BID, n = 70): 5 | Local skin reactions around the treated knees, Subjects, number (%) (17.5 mg/knee BID, n = 70): 4 (5.7%) | Requires hospitalization, Events (17.5 mg/knee BID, n = 70): 0 | Requires hospitalization, Subjects, number (%) (17.5 mg/knee BID, n = 70): 0 | Results in death, number (%) (17.5 mg/knee BID, n = 70): 0 | Serious treatment-emergent adverse events, Events (17.5 mg/knee BID, n = 70): 0 | Serious treatment-emergent adverse events, Subjects, number (%) (17.5 mg/knee BID, n = 70): 0 | Severe treatment-emergent adverse events, Events (17.5 mg/knee BID, n = 70): 0 | Severe treatment-emergent adverse events, Subjects, number (%) (17.5 mg/knee BID, n = 70): 0 | To be discontinued from the study due to adverse events, Events (17.5 mg/knee BID, n = 70): 1 | To be discontinued from the study due to adverse events, Subjects, number (%) (17.5 mg/knee BID, n = 70): 1 (1.4%) | To be discontinued from the treatment temporarily due to adverse events, Events (17.5 mg/knee BID, n = 70): 0 | To be discontinued from the treatment temporarily due to adverse events, Subjects, number (%) (17.5 mg/knee BID, n = 70): 0 | Treatment-emergent adverse events, Events (17.5 mg/knee BID, n = 70): 52 | Treatment-emergent adverse events, Subjects, number (%) (17.5 mg/knee BID, n = 70): 30 (42.9%) | safety and tolerability (all three doses (4.375, 8.75, 17.5 mg/knee BID)): appeared to be safe and were generally well tolerated | skin irritation incidences, total (all mild) (in vivo): 9 | overall safety vs oral ibuprofen (in vivo, po): safer than oral ibuprofen | Gastroenteritis: number of adverse events [1]: 1 | Gastroenteritis: percentage of subjects with adverse events [1]: 1.4%

Source: patent US20240024273A1, “TOPICAL ADMINISTRATION OF 2-(DIETHYLAMINO)ETHYL 2-(4-ISOBUTYLPHENYL)PROPRIONATE FOR TREATMENT OF DISEASES” (TECHFIELDS PHARMA CO., LTD., priority 2020, published 2024)
